According to publication PMC6637423 (Organic & biomolecular chemistry, 2019):

Key:
C57BL/6J mice [1] = experiment: 55°C warm-water tail-withdrawal assay after oral; type: in vivo, mouse; conditions: morphine 5 mg/kg, p.o.
C57BL/6J mice [2] = experiment: Respiration rate, Oxymax/CLAMS assay; conditions: morphine 30 mg/kg, i.p., positive control
C57BL/6J mice [3] = experiment: 55°C warm-water tail-withdrawal assay after i.c.v. administration; type: in vivo, mouse; conditions: 1 nmol i.c.v., summed over 90 min

CN1CC[C@]23c4c5ccc(O)c4O[C@H]2[C@@H](O)C=C[C@H]3[C@H]1C5 [Morphine]
Antinociception after oral administration versus vehicle (C57BL/6J mice [1]): significantly higher antinociceptive effects compared to vehicle treated animals
Respiratory effect versus vehicle (C57BL/6J mice [2]): suppressed respiration up to an hour
Screening: summed tail-withdrawal latency versus vehicle (C57BL/6J mice [3]): withdrawal latencies equivalent to vehicle treated animals
